Consider 1 molecule from patent US20210207099A1, “METHODS AND COMPOSITIONS FOR GENERATING CELLS OF ENDODERMAL LINEAGE AND BETA CELLS AND USES THEREOF” (priority 2018, published 2021).

Type in all cases: cell-based, human
The test system of data set [1] is HUES8 cells, hepatic differentiation protocol. Kind of data set: Liver differentiation with cytoskeletal compounds. As to conditions: 1 μM for the first 24 hours of stage 3. As to the method:
(§1) For differentiation to other endodermal lineages, HUES8 stem cells were cultured and passaged normally. Differentiations were initiated 24 hours after seeding 24-well plates at 0.521×10^6 cells/cm^2. Protocols for exocrine pancreas, intestine, and liver were adapted, from literature. Either latrunculin A or nocodazole were added as indicated in each protocol. All three differentiation protocols used the same stage 1 to induce endoderm. Stage 1 (4 days): BE1 media+100 ng/mL Activin A+3 μM CHIR99021 for the first 24 hours, followed with 3 days of BE1 containing 100 ng/mL Activin A only.
Liver Differentiation: Stage 2 (2 days): BE2 media+50 ng/mL KGF. Stage 3 (4 days): BE3 media+10 ng/mL bFGF+30 ng/mL BMP4 (R&D Systems, 314-BP). For the first 24 hours only, 2 μM retinoic acid and either 1 μM latrunculin A or 1 μM nocodazole were added. Stage 4 (5 days): BE3 media+20 ng/mL OSM (R&D Systems, 295-OM)+20 ng/mL HGF (R&D Systems, 294-HG)+100 nM dexamethasone (MilliporeSigma, D4902).

Data set [2] has as its system HUES8 cells differentiated with the planar protocol. Put plainly: Latrunculin A in the completely planar SC-β cell differentiation protocol.
Description: Planar protocol: 24 hours after passaging, cells seeded onto 6 or 24-well plates at 0.313-0.521×10^6 cells/cm^2 were differentiated with a new 6 stage protocol using the following formulations, with media changes every day. Stage 1 (4 days): BE1 media+100 ng/mL Activin A+3 μM CHIR99021 for the first 24 hours, followed with 3 days of BE1 containing 100 ng/mL Activin A only. Stage 2 (2 days): BE2 media+50 ng/mL KGF. Stage 3 (2 days): BE3+50 ng/mL KGF, 200 nM LDN193189, 500 nM TPPB (Tocris, 53431), 2 μM retinoic acid, and 0.25 μM SANT1. Stage 4 (4 days): BE3+50 ng/mL KGF, 200 nM LDN193189, 500 nM TPPB, 0.1 μM retinoic acid, and 0.25 μM SANT1. Stage 5 (7 days): S5 media+10 μM ALK5i II+20 ng/mL Betacellulin+0.1 μM retinoic acid+0.25 μM SANT1+1 μM T3+1 μM XXI. 1 μM Latrunculin A was added to this media for the first 24 hours only. Stage 6 (7-25 days): Cultures were kept on the plate with ESFM for the first 7 days. To move to suspension culture, cells could be single cell dispersed with TrypLE and placed in 6 mL ESFM within a 6-well plate at a concentration of 4-5 million cells/well on an orbital shaker at 100 RPM. Assessments were performed 5-8 days after cluster aggregation.
RNA was extracted from either whole clusters or cells directly on the plate with the RNeasy Mini Kit (Qiagen, 74016). Samples were treated with a DNAse kit (Qiagen, 79254) during extraction. The High Capacity cDNA Reverse Transcriptase Kit (Applied Biosystems, 4368814) was used to synthesize cDNA on a thermocycler (Applied Biosystems, A37028). The PowerUp SYBR Green Master Mix (Applied Biosystems, A25741) was used on a StepOnePlus (Applied Biosystems), and real time PCR results were analyzed using a ΔΔCt methodology. TBP and GUSB were both used as housekeeping genes.
Cells were single-cell dispersed with TrypLE and fixed with 4% PFA for 30 minutes. Cells were then washed with PBS and incubated with ICC solution for 45 minutes at room temperature, incubated with primary antibodies overnight at 4° C., and incubated with secondary antibodies for 2 hours at room temperature. […]
For data set [3], the system named is HUES8 cells, intestinal differentiation protocol. Put plainly: Intestine differentiation with cytoskeletal compounds. As to conditions: 1 μM for the first 24 hours of stage 2. As to the method: as §1
Intestine Differentiation: Stage 2 (4 days): BE2 media+3 μM CHIR99021+500 ng/mL FGF4 (R&D Systems, 235-F4). Either 1 μM latrunculin A was added for the first 24 hours of this stage, or 1 μM nocodazole was added for the entirety of stage 2. Stage 3 (7 days): BE3 media+500 ng/mL R-spondin1 (R&D Systems, 4645-RS)+100 ng/mL EGF (R&D Systems, 236-EG)+200 nM LDN193189.

The test system of data set [4] is plated pancreatic progenitors. Kind of data set: Single-cell RNA sequencing of plated pancreatic progenitors treated throughout stage 4. Conditions: 0.5 μM latrunculin A throughout stage 4. As to the method:
Cells generated with the suspension protocol were single-cell dispersed with TrypLE from clusters at the end of stage 3 and seeded onto collagen 1 coated 24-well plates at 0.625×10^6 cells/cm^2. Either 0.5 μM latrunculin A or 5 μM nocodazole were added throughout the entirety of stage 4. At the end of stage 4, cells were single-cell dispersed, suspended in DMEM, and submitted to the Washington University Genome Technology Access Center. Library preparation was done using the Chromium Single Cell 3′ Library and Gel Bead Kit v2 (10× Genomics, 120237). Briefly, single cells were isolated in emulsions using a microfluidic platform, and each single cell emulsion was barcoded with a unique set of oligonucleotides. The GemCode Platform was used to carry out reverse transcription within each single cell emulsion, which was amplified to construct a library. The libraries were sequenced with paired-end reads of 26×98 primerbp using the Illumina HiSeq2500.
Seurat v2.0 was used to perform single cell RNA analyses. Duplicate cells and cells with high mitochondrial gene expression were filtered out using FilterCells (>9000 total genes and >5% mitochondrial genes for Untreated Control, >6000 genes and >6% mitochondrial genes for latrunculin A, >12000 genes and >4% mitochondrial genes for nocodazole). Each data set was normalized using global-scaling normalization. FindVariableGenes identified and removed outlier genes using scaled z-score dispersion. The datasets were then combined and a canonical correlation analysis (CCA) was performed with RunMultiCCA. AlignSubspace was used to align the CCA subspaces and generated a new dimension reduction for integrated analysis. Unsupervised TSNE plots were generated using RunTSNE, and the resulting clusters were defined and labeled using FindMarkers. VInPlot (Violin plots) and FeaturePlot (tsne plots) were used to visualize differences in gene expressions across each cluster and conditions.

On to `C/C1=C/C(=O)O[C@@H]2C[C@@H](CC[C@H](C)/C=C\C=C\CC1)O[C@@](O)([C@@H]1CSC(=O)N1)C2` [latrunculin A], for which, in data set [1], the hepatocyte gene expression entry is reported as “increased hepatocyte gene expression” and the “immunostaining for AFP” value is “more prevalent with latrunculin A treatment”. In addition, the “endocrine induction, SC-β cell specification and off-target lineages” value in data set [2] (1 μM for the first 24 hours of stage 5) is “greatly increased endocrine induction and SC-β cell specification while decreasing off-target lineages”. Moreover, in data set [2] (added during stage 4 (0.5 μM)), the NKX6-1 expression result is reported as “decreasing NKX6-1 expression”; the “premature expression of NEUROG3 and its downstream targets” value is recorded as “dramatically increased premature expression of NEUROG3”. Besides, the “markers of intestinal stem cells and Paneth cells” value in data set [3] is recorded as “greatly increased markers intestinal stem cells as well as Paneth cells”. In data set [4], the “percentage of cells in the NKX6-1+ population (pancreatic progenitor 2)” value is 2.5% and the “percentage of cells with endocrine induction” value is reported as 44.7%.
